# Tests used:
# [1] = system: NFKB activity in reporter PANC-1 cells; assay: NFKB luciferase reporter activity in PANC-1 cells; format: cell-based; conditions: Homo sapiens; PANC-1 reporter cells, +10 ng/ml rHuTNF for 8 h
# Method: Luciferase activity was normalized to PANC-1 cells treated with rHuTNF without inhibitor (DMSO only). Y-axis=NFKB activity (%). […] Whole cell lysates were analyzed in a Meso Scale Discovery (MSD) assay with anti-HDAC4 capture and anti-pHDAC4 detection antibodies. HDAC4 phosphorylation was normalized to untreated PANC-1 cells (DMSO only). Y-axis=HDAC4 phosphorylation (%). X-axis=Compound concentration (nM).
# (§1) FIG. 28: depicts: (A) and (B) effect of compound E9 on NFKB activity. […] Luciferase activity was normalised to cells treated with rHuTNF without inhibitor (DMSO only). Y-axis=NFKB activity (%). X-axis=compound concentration (nM); Bar “A” viability without compound and without TNF; bar “B” viability without compound and with 10 ng/ml TNF; and (C) Effect of compound E9 on HDAC4 phosphorylation. […] Whole cell lysates were analysed in a Meso Scale Discovery (MSD) assay with anti-HDAC4 capture and anti-pHDAC4 detection antibodies. HDAC4 phosphorylation was normalized to untreated PANC-1 cells (DMSO only). Y-axis=HDAC4 phosphorylation (%). X-axis=Compound concentration (nM).
# [2] = system: NFKB activity in reporter MC38 cells; assay: NFKB luciferase reporter activity in MC38 cells; format: cell-based, murine; conditions: Mus musculus, MC-38, +10 ng/ml rHuTNF for 8 h
# Method: as §1
# [3] = system: MC38 tumour; assay: MC38 syngeneic tumour model, tumour growth and survival; format: in vivo, mice; conditions: E9 24 mg/kg BID compared to dasatinib 30 mg/kg QD
# Method: Error bars SEM. X-axes: Days. Statistical significance was calculated with two-way ANOVA analysis including Tukey's multiple comparison analysis. ***p<0.001; (B) Body weight kinetics of the mice in (A). Y-axis: Mean body weight change (%).
# Y-axis=Mean tumour volume (mm3). […] X-axis=Days. […] X-axis: Days.
# Left hand column=compound treatment group; and right hand column=vehicle treatment group. Y axes=Tumour volume (mm3); X axes=Days after inoculation.
# FIG. 29: depicts the effect of compound E9 and anti PD-1 mAB (alone or in combination) on in vivo tumour growth (mean+/−SEM) in a MC38 syngeneic tumour model. (A) Y axes=Tumour volume (mm3); X axes=Days after start of therapy. Vehicle+anti PD-1 mAB (squares), vehicle+mIgG1e ctr (circles), E9+anti PD-1 mAB (inverted triangles), and E9+mIgG1e ctr (triangles). (B) Median overall survival.) Y axes=Probability of survival (%); X axes=Days after start of therapy. Vehicle+anti PD-1 mAB (grey/dashed), vehicle+mIgG1e ctr (black/solid), E9+anti PD-1 mAB (grey/solid), and E9+mIgG1e ctr (black/dashed). […] (C) E9 25 mg/kg BID; (D) aPD-1 2.5 mg/kg; (E) E9 50 mg/kg BID+aPD-1 2.5 mg/kg; and (F) vehicle.
# [4] = target: HCK (Homo sapiens (Human), UniProt P08631); format: biochemical; conditions: Kinase Profiler
# [5] = Human hepatocyte stability; format: in vitro ADME
# [6] = Mouse hepatocyte stability; format: in vitro ADME; conditions: hepatocytes
# [7] = system: MC38 colorectal carcinoma tumours; assay: MC38 syngeneic mouse model, E9 and anti-PD-1 alone and in combination (Example 10); format: in vivo, C57Bl/6N mice; conditions: E9 25 mg/Kg twice daily and/or anti-PD-1 mAb
# [8] = target: SIK3 (Homo sapiens (Human), UniProt Q9Y2K2); conditions: fold of the value of compound C7 (C7 = 1×)
# [9] = in vivo, po, 30 mg/kg
# [10] = in vivo; conditions: male, CD1, mouse, po, 30 mg/kg
# [11] = in vitro; conditions: human, microsomes
# [12] = in vitro; conditions: mouse, microsomes
# [13] = Human plasma-protein binding
# [14] = Murine plasma protein binding
# [15] = MDCK wild type permeability/efflux; conditions: dog
# [16] = Screening PK in mice after 30 mg/kg po; conditions: for concentration at 6 h: mice, 30 mg/kg po
# [17] = Metabolite profile in hepatocytes / in vivo
# From the text: Metabolites are identified using high-resolution mass spectrometry.
# [18] = system: HDAC4 phosphorylation in PANC-1 cells; assay: HDAC4 phosphorylation (Meso Scale Discovery assay); conditions: 10 ng/mL rHuTNF, 3 h
# [19] = system: MC38 murine tumour cell line; assay: TNF-sensitised cell viability assay (CellTiter-Glo); conditions: Mus musculus
# [20] = system: NFKB activity in MC38 cells; assay: TNF-induced NFKB activity (NFKB-dependent luciferase reporter); conditions: 10 ng/ml rMuTNF
# [21] = total plasma concentration at 30 mg/kg p.o dose, fold of C7 (C7 = 1×)
smiles,measurement,setting,value
"Cc1nc(Nc2ncc(C(=O)Nc3c(CF)csc3Cl)s2)cc(N2CCN(C)CC2)n1 [Compound E9, N-(2-chloro-4-(fluoromethyl)thiophen-3-yl)-2-((2-methyl-6-(4-methylpiperazin-1-yl)pyrimidin-4-yl)amino)thiazole-5-carboxamide]",EC50,[1],405 nM
same,EC50,[2],389 nM
same,tumour growth inhibition,[3],superior and more uniform tumour growth inhibition
same,HCK residual activity,[4],less than 1%
same,"Human hepatocyte stability, Half-life",[5],24 min
same,half-life,"[5]; human, hepatocytes, read-out: Human hepatocyte stability, Half-life",21 to 30 min
same,microsomal CLint,"[5]; human, hepatocytes, read-out: Human hepatocyte stability, Intrinsic clearance",58 µL/min/mg
same,half-life,[6],65 min
same,microsomal CLint,"[6]; read-out: Mouse hepatocyte stability, Intrinsic clearance",21 µL/min/mg
same,TGI,[7],73%
same,"SIK3 IC50 (nM), relative to C7",[8],0.3×
same,"% AUCextrap, Free","[9]; male, CD1, mouse",0.49%
same,"% AUCextrap, Total","[9]; male, CD1, mouse",0.49%
same,"AUCinf (nM*h), Free","[9]; male, CD1, mouse",239.92 nM·h
same,"AUClast (nM*h), Free","[9]; male, CD1, mouse",238.75 nM·h
same,"Rsq, Free",[9]; mouse,0.84
same,"Rsq, Total",[9]; mouse,0.84
same,AUC(0-inf),[10],9.63 µM·h
same,AUC(0-t),[10],9.58 µM·h
same,Cmax,[10],2690 ng/mL
same,MRT last,[10],203 min
same,Tmax,[10],15 min
same,half-life,[10],166 min
same,half-life,[11],11 min
same,microsomal CLint,[11],131 µL/min/mg
same,half-life,[12],9 min
same,microsomal CLint,[12],158 µL/min/mg
same,"Human plasma-protein binding, Percentage unbound (%)",[13]; Table 5.1A,1%
same,recovery at 4 h,"[13]; human, plasma",92%
same,"Murine plasma protein binding, Percentage unbound (%)",[14]; Table 5.1A,1%
same,recovery at 4 h,"[14]; mouse, plasma",88%
same,Papp,[15],10 ×10⁻⁶ cm/s
same,efflux ratio,[15],1
same,fold improvement of free serum concentration over C7,"[16]; mouse, in vivo",2 fold
same,fold improvement of total serum concentration over C7,"[16]; mouse, in vivo",4.5 fold
same,Cmax at 2 h,"[16]; mouse, plasma, po, 30 mg/kg",426 ng/mL
same,concentration at 6 h,"[16]; mouse, plasma, po, 30 mg/kg, Free plasma concentration after 6 h (nM)",7.7 nM
same,concentration at 6 h,"[16]; mouse, plasma, po, 30 mg/kg, Plasma concentration after 6 h (nM)",309 nM
same,"AUC0-last (nM*h), relative to C7",[16]; [21],8.2×
same,"C max (ng/ml), relative to C7",[16]; [21],5.6×
same,"MRT0-last (h), relative to C7",[16]; [21],1.2×
same,"t1/2 (h), relative to C7",[16]; [21],2×
same,quinone-imine reactive metabolite,[17],not observed
same,Inhibition of HDAC4 phosphorylation,[18],++
same,IC50,"[19]; MC-38, read-out: MC38 IC50 (at 100 ng/mL rMuTNF)",< 100 nM
same,EC50,"[19]; MC-38, read-out: mean EC50 of sensitising MC38 tumour cells to TNF-mediated killing",< 100 nM
same,Inhibition of NFKB activity (MC38),[20],++
